# Reference: publication PMC12136037, “Type II kinase inhibitors that target Parkinson’s disease–associated LRRK2” (Science Advances, 2025)
# Key:
# Test in all cases: DSF 100 kinase selectivity screen;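 also: compound tested at 20 µM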
# Format in all cases: binding
# [1] = target: T1, ~100 representative kinases (Homo sapiens, UniProt P78368); details: Protein CSNK1G2; average of three replicates
# T1 construct: Recombinant protein kinase domains with a concentration of 2 μM
# Outline: (§1)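 Each kinase domain, at 2 μM, is mixed with 20 μM test compound and SYPRO Orange in Hepes (20 mM, pH 7.5) with 500 mM NaCl. Temperature is then raised at 3°C/min and fluorescence-monitored unfolding yields the melting temperature change, ΔTm in degrees Celsius.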
# [2] = target: T2, ~100 representative kinases (Homo sapiens, UniProt O15164); details: Protein TIF1; DSF; average of three replicates
# T2 construct: Recombinant protein kinase domains with a concentration of 2 μM
# T2 sequence (O15164 1-1050): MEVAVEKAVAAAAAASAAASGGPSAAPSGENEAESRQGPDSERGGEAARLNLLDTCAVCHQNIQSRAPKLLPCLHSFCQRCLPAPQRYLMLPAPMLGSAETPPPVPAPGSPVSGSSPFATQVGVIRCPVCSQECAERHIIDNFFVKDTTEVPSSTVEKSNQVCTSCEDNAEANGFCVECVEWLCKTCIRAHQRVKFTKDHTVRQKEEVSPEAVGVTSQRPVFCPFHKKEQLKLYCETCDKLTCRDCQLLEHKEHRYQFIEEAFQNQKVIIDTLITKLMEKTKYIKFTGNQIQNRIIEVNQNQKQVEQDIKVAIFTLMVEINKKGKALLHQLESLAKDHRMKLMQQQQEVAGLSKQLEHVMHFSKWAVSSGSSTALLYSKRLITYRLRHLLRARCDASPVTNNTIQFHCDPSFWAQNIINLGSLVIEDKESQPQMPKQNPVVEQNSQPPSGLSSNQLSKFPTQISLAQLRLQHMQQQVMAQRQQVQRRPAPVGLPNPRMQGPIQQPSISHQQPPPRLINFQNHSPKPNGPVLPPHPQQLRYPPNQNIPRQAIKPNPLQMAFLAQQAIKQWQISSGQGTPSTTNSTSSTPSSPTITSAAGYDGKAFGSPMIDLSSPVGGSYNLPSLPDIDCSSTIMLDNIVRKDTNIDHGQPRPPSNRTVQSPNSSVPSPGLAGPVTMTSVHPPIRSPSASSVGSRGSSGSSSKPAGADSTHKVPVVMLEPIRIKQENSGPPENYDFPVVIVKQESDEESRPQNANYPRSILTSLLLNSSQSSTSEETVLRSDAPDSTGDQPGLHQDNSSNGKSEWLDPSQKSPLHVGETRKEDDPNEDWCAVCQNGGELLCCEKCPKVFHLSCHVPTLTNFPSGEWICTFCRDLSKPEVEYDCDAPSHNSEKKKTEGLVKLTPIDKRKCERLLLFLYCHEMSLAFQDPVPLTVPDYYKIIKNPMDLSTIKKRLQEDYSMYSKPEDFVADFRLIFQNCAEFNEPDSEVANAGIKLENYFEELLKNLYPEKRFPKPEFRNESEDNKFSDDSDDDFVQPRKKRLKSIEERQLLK
# Outline: as §1
# [3] = target: T3, ~100 representative kinases (Homo sapiens, UniProt P22607); details: protein FGFR3; average of three replicates
# T3 construct: Recombinant protein kinase domains with a concentration of 2 μM
# Outline: as §1
# [4] = target: T4, ~100 representative kinases (Homo sapiens, UniProt Q02750); details: protein MAP2K1; average of three replicates
# T4 construct: Recombinant protein kinase domains with a concentration of 2 μM
# Outline: as §1
# [5] = target: T5, ~100 representative kinases (Homo sapiens, UniProt Q96GD4); details: Protein AURKB; average of three replicates
# T5 construct: Recombinant protein kinase domains with a concentration of 2 μM
# Outline: as §1
# [6] = target: T6, ~100 representative kinases (Homo sapiens, UniProt Q16654); details: protein PDK4; average of three replicates
# T6 construct: Recombinant protein kinase domains with a concentration of 2 μM
# Outline: as §1
# [7] = target: T7, ~100 representative kinases (Homo sapiens, UniProt Q96KB5); details: Protein TOPK; DSF; average of three replicates
# T7 construct: Recombinant protein kinase domains with a concentration of 2 μM
# T7 sequence (Q96KB5 1-322): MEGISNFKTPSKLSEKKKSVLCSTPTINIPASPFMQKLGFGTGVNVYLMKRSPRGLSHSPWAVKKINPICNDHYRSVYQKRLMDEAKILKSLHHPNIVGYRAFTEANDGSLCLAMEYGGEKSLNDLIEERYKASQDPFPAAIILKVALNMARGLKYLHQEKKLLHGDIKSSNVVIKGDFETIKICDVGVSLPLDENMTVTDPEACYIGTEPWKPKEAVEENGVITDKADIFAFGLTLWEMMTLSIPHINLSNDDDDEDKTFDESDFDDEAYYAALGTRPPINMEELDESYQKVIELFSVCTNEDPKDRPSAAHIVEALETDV
# Outline: as §1
# [8] = target: T8, ~100 representative kinases (Homo sapiens, UniProt Q9BRS2); details: Protein RIOK1; DSF; average of three replicates
# T8 construct: Recombinant protein kinase domains with a concentration of 2 μM
# T8 sequence (Q9BRS2 1-568): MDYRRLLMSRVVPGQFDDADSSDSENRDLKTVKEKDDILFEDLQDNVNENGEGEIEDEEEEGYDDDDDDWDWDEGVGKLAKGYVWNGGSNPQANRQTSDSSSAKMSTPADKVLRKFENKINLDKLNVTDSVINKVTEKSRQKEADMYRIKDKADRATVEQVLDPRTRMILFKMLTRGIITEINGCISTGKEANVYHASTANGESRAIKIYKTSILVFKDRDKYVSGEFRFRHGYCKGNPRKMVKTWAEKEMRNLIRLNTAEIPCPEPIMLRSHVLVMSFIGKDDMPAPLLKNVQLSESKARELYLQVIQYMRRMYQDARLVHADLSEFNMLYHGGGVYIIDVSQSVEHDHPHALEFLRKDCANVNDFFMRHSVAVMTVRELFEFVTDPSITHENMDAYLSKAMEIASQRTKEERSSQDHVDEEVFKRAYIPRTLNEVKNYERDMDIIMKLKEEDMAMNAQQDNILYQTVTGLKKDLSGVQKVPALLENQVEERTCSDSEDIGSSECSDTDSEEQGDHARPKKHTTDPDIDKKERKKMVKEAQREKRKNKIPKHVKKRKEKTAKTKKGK
# Outline: as §1
# T4 sequence (Q02750 whole entry, the tested form may be a part): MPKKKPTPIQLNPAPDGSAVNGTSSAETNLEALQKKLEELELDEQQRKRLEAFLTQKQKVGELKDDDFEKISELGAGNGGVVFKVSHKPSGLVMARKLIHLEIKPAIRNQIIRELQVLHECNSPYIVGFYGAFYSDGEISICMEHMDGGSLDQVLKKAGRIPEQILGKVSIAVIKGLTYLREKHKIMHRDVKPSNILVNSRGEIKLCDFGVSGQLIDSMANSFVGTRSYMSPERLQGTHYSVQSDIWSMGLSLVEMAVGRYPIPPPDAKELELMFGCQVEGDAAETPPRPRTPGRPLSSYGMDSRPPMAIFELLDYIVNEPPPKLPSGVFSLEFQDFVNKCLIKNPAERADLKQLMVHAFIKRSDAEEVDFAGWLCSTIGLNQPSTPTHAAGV
# T5 sequence (Q96GD4 whole entry, the tested form may be a part): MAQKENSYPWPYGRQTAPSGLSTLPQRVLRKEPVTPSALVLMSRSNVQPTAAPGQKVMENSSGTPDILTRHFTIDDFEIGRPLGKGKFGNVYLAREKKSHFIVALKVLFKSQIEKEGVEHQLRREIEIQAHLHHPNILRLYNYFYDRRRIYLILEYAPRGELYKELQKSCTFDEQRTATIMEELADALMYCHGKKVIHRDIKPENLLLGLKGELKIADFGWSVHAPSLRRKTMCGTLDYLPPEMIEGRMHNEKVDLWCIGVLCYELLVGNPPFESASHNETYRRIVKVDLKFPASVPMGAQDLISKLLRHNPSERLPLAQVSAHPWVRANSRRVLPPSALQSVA
# T3 sequence (P22607 23-806): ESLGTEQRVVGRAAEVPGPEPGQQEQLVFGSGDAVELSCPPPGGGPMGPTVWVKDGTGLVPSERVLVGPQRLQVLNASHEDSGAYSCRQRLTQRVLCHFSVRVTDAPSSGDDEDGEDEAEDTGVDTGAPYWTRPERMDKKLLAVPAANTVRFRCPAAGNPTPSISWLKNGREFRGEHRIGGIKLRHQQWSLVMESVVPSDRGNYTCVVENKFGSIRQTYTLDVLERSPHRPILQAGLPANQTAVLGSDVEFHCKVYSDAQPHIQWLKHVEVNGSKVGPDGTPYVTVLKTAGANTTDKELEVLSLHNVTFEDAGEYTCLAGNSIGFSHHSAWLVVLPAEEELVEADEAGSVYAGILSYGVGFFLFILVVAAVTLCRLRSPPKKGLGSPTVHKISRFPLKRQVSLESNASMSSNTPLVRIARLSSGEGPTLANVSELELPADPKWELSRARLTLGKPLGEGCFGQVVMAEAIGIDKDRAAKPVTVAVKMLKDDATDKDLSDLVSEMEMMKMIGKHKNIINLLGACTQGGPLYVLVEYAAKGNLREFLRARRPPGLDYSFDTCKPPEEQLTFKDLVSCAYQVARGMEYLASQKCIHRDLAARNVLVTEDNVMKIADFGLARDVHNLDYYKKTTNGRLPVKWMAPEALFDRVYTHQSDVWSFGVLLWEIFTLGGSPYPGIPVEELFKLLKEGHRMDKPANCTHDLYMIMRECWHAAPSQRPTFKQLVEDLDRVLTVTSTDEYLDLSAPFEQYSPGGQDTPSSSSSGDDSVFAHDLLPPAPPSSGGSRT
# T1 sequence (P78368 whole entry, the tested form may be a part): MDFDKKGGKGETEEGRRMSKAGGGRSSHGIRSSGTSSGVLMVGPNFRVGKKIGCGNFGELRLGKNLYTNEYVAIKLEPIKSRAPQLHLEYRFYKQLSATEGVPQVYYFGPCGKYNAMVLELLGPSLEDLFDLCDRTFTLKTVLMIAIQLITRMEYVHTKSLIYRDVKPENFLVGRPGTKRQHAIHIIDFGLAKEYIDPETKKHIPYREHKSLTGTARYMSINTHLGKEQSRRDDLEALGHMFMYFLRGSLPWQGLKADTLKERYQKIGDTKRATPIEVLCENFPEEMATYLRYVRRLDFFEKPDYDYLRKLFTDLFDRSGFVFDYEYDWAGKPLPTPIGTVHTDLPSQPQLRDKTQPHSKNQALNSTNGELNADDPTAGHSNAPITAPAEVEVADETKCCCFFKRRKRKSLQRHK
# T6 sequence (Q16654 whole entry, the tested form may be a part): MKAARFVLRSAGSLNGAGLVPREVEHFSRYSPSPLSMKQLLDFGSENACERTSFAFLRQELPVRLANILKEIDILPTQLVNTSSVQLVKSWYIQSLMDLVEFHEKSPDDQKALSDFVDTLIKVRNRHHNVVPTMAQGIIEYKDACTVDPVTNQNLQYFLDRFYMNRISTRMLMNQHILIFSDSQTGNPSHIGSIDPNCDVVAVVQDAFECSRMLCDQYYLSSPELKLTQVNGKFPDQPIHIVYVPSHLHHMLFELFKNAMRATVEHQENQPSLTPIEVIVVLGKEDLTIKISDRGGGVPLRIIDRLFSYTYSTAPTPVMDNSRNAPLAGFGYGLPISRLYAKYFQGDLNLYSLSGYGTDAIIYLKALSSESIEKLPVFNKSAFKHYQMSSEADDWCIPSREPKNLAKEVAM
dTm [1] [K],dTm [2] [K],dTm [4] [K],dTm [5] [K],SMILES,also measured
0.81,,,,Cc1ccc(NC(=O)C2(C(=O)Nc3cccc(-c4c[nH]c5ncnc(N6CCOCC6)c45)c3)CC2)cc1 [Compound 14],
0.71,,,,COc1ccc(NC(=O)C2(C(=O)Nc3cccc(-c4c[nH]c5ncnc(N6CCOCC6)c45)c3)CC2)cc1 [Compound 16],
,1.73,0.49,-0.56,Cc1ccc(-n2nc(C(C)(C)C)cc2NC(=O)Nc2cccc(-c3c[nH]c4nc(Cl)nc(N5CCOCC5)c34)c2)cc1 [Compound 30],
0.51,,,,O=C(Nc1ccc(Cl)cc1)C1(C(=O)Nc2cccc(-c3c[nH]c4ncnc(N5CCOCC5)c34)c2)CC1 [Compound 13],
0.62,,,,Cc1cc(F)ccc1NC(=O)C1(C(=O)Nc2cccc(-c3c[nH]c4ncnc(N5CCOCC5)c34)c2)CC1 [Compound 24],
0.45,,,,O=C(Nc1ccc(F)cc1)C1(C(=O)Nc2cccc(-c3c[nH]c4ncnc(N5CCOCC5)c34)c2)CC1 [Compound 2],
,5.42,2.23,1.96,CC(C)(C)c1cccc(NC(=O)C2(C(=O)Nc3cccc(-c4c[nH]c5ncnc(N6CCOCC6)c45)c3)CC2)c1 [Compound 22],dTm [3]: 4.54 K
,0.97,2.87,3.15,Cc1ccc(-n2nc(C(C)(C)C)cc2NC(=O)Nc2cccc(-c3c[nH]c4ncnc(N5CCOCC5)c34)c2)cc1 [Compound 29],
0.40,,,,O=C(Nc1cccc(-c2c[nH]c3ncnc(N4CCOCC4)c23)c1)c1cccn(-c2ccc(F)cc2)c1=O [Compound 4],
0.60,,,,CCc1ccc(NC(=O)C2(C(=O)Nc3cccc(-c4c[nH]c5ncnc(N6CCOCC6)c45)c3)CC2)cc1 [Compound 15],
,0.90,0.59,-1.00,CC(=O)N1CCN(c2nc(Cl)nc3[nH]cc(-c4cccc(NC(=O)Nc5cc(C(C)(C)C)nn5-c5ccc(C)cc5)c4)c23)CC1 [Compound 31],
0.39,,,,O=C(Nc1ccccc1)C1(C(=O)Nc2cccc(-c3c[nH]c4ncnc(N5CCOCC5)c34)c2)CC1 [Compound 12],
0.05,,,,CC(C)(C)c1cc(NC(=O)Nc2cccc(-c3c[nH]c4ncnc(N5CCOCC5)c34)c2)n(-c2ccc3ncccc3c2)n1 [Compound 28],
,3.26,2.40,5.64,O=C(Nc1cccc(-c2c[nH]c3ncnc(N4CCOCC4)c23)c1)C1(C(=O)Nc2ccc(F)c(Br)c2)CC1 [Compound 19],dTm [3]: 4.74 K
0.39,,,,Cc1cc(NC(=O)C2(C(=O)Nc3cccc(-c4c[nH]c5ncnc(N6CCOCC6)c45)c3)CC2)ccc1F [Compound 20],

# Continued, compound first:
SMILES,dTm [1] [K],dTm [2] [K],dTm [4] [K],dTm [5] [K],also measured
Cc1cc(NC(=O)C2(C(=O)Nc3ccc(F)cc3)CC2)cc(-c2c[nH]c3ncnc(N4CCOCC4)c23)c1 [Compound 6],,2.83,1.10,4.75,dTm [3]: 1.74 K
O=C(Nc1cc(F)cc(Br)c1)C1(C(=O)Nc2cccc(-c3c[nH]c4ncnc(N5CCOCC5)c34)c2)CC1 [Compound 27],,4.20,2.13,2.17,dTm [3]: 2.07 K
CCSc1nc(NC)c2c(-c3cccc(NC(=O)Nc4cc(C(C)(C)C)nn4-c4ccc(C)cc4)c3)c[nH]c2n1 [Compound 32],,0.82,0.11,0.28,
COc1cc(NC(=O)C2(C(=O)Nc3cccc(-c4c[nH]c5ncnc(N6CCOCC6)c45)c3)CC2)ccc1F [Compound 21],0.57,,,,
O=C(Nc1cccc(-c2c[nH]c3ncnc(N4CCOCC4)c23)c1)C1(C(=O)Nc2cc(Br)c(F)cc2F)CC1 [Compound 25],,3.01,2.16,-2.86,dTm [3]: 2.90 K
"CNC(=O)c1cc(Oc2ccc(NC(=O)Nc3cc(C(C)(C)C)nn3-c3ccc4ncccc4c3)c(F)c2)ccn1 [Rebastinib, reference compound]",,0.87,0.92,1.16,
"COc1cc2c(Oc3ccc(NC(=O)C4(C(=O)Nc5ccc(F)cc5)CC4)cc3F)ccnc2cc1OCCCN1CCOCC1 [Foretinib, reference compound]",0.37,,,,
"Cc1ccc(C(=O)Nc2ccc(CN3CCN(C)CC3)c(C(F)(F)F)c2)cc1C#Cc1cnc2cccnn12 [Ponatinib, reference compound]",,0.0214,,0.49,dTm [3]: 14.03 K; dTm [6]: -0.09 K; dTm [7]: 2.32 K; dTm [8]: 1.86 K
O=C(Nc1cccc(-c2c[nH]c3ncnc(N4CCOCC4)c23)c1)C1(C(=O)Nc2ccc(F)c(Br)c2F)CC1 [Compound 26],,2.87,2.67,0.97,dTm [3]: 3.36 K
COc1cc(S(C)(=O)=O)ccc1Nc1nc(N(C)C)c2c(Cl)c[nH]c2n1 [Compound 37],,-0.80,-0.22,-0.0653,
O=C(Nc1cccc(-c2c[nH]c3ncnc(N4CCOCC4)c23)c1)C1(C(=O)Nc2ccc(F)cc2F)CC1 [Compound 23],0.54,,,,
O=C(Nc1cccc(-c2c[nH]c3ncnc(N4CCOCC4)c23)c1)C1(C(=O)Nc2cccc3c2CCC3)CC1 [Compound 11],,3.41,2.12,-0.43,dTm [3]: 2.85 K
COc1cc(C(=O)N2CCOCC2)c(F)cc1Nc1nc(N(C)C)c2c(Cl)c[nH]c2n1 [Compound 36],,-2.24,-0.30,1.54,
O=C(Nc1cccc(-c2c[nH]c3ncnc(N4CCOCC4)c23)c1)C1(C(=O)Nc2ccc(F)c(Cl)c2)CC1 [Compound 18],0.27,,,,
Cc1ccc(C(=O)Nc2ccc(CN3CCN(C)CC3)c(C(F)(F)F)c2)cc1C#Cc1c[nH]c2ncnc(N3CCOCC3)c12 [Compound 1],,0.45,,1.01,dTm [3]: 4.20 K; dTm [6]: -0.54 K; dTm [7]: 2.13 K; dTm [8]: 4.09 K
O=C(Nc1cccc(-c2c[nH]c3ncnc(N4CCOCC4)c23)c1)C1(C(=O)Nc2ccc(F)c(F)c2)CC1 [Compound 17],0.36,,,,
